Results taken from ChEMBL document CHEMBL3044664, “Synthesis of coumarin-based 1,3,4-oxadiazol-2ylthio-N-phenyl/benzothiazolyl acetamides as antimicrobial and antituberculosis agents” (2013).
≈ marks a conversion by molar mass, not a printed value.

How the values were obtained:
Format in all cases: functional
[1] = tested on: Pseudomonas aeruginosa; assay: Antibacterial activity against Pseudomonas aeruginosa MTCC 741 assessed as growth inhibition by agar streak dilution method
[2] = tested on: Aspergillus niger; assay: Antifungal activity against Aspergillus niger MTCC 282 assessed as growth inhibition by agar streak dilution method
[3] = tested on: Shigella flexneri; assay: Antibacterial activity against Shigella flexneri MTCC 1457 assessed as growth inhibition by agar streak dilution method
[4] = tested on: Aspergillus fumigatus; assay: Antifungal activity against Aspergillus fumigatus MTCC 343 assessed as growth inhibition by agar streak dilution method
[5] = tested on: Mycobacterium tuberculosis; assay: Antitubercular activity against Mycobacterium tuberculosis H37Rv assessed as growth inhibition by BACTEC MGIT method
[6] = tested on: Staphylococcus aureus; assay: Antibacterial activity against Staphylococcus aureus MTCC 96 assessed as growth inhibition by agar streak dilution method
[7] = tested on: Proteus vulgaris; assay: Antibacterial activity against Proteus vulgaris MTCC 1771 assessed as growth inhibition by agar streak dilution method
[8] = tested on: Mycobacterium tuberculosis; assay: Antitubercular activity against Mycobacterium tuberculosis H37Rv assessed as growth inhibition by Lowenstein-Jensen method
[9] = tested on: Klebsiella pneumoniae; assay: Antibacterial activity against Klebsiella pneumoniae MTCC 109 assessed as growth inhibition by agar streak dilution method
[10] = tested on: Escherichia coli; assay: Antibacterial activity against Escherichia coli MTCC 739 assessed as growth inhibition by agar streak dilution method
[11] = tested on: Salmonella typhi; assay: Antibacterial activity against Salmonella enterica subsp. enterica serovar Typhi MTCC 733 assessed as growth inhibition by agar streak dilution method
[12] = tested on: Candida albicans; assay: Antifungal activity against Candida albicans MTCC 183 assessed as growth inhibition by agar streak dilution method
[13] = tested on: Aspergillus clavatus; assay: Antifungal activity against Aspergillus clavatus MTCC 1323 assessed as growth inhibition by agar streak dilution method
[14] = tested on: Bacillus cereus; assay: Antibacterial activity against Bacillus cereus MTCC 430 assessed as growth inhibition by agar streak dilution method
[15] = tested on: Mycobacterium tuberculosis; assay: Antitubercular activity against Mycobacterium tuberculosis H37Rv assessed as growth inhibition at MIC by Lowenstein-Jensen method

SMILES	MIC [1] [µg/mL]	MIC [2] [µg/mL]	MIC [3] [µg/mL]	MIC [4] [µg/mL]	MIC [5] [µg/mL]	MIC [6] [µg/mL]	MIC [7] [µg/mL]	MIC [8] [µg/mL]	MIC [9] [µg/mL]	MIC [10] [µg/mL]	MIC [11] [µg/mL]	MIC [12] [µg/mL]	MIC [13] [µg/mL]	MIC [14] [µg/mL]	growth inhibition (GI) [15] [%]
CCOc1ccc(NC(=O)CSc2nnc(-c3cc4ccccc4oc3=O)o2)cc1	6.25 (≈ 14.8 µM)	100 (≈ 236 µM)	100 (≈ 236 µM)	100 (≈ 236 µM)	> 6.25	25 (≈ 59 µM)	100 (≈ 236 µM)	25 (≈ 59 µM)	100 (≈ 236 µM)	50 (≈ 118 µM)	50 (≈ 118 µM)	50 (≈ 118 µM)	100 (≈ 236 µM)	100 (≈ 236 µM)	98
CC(=O)Nc1ccc(NC(=O)CSc2nnc(-c3cc4ccccc4oc3=O)o2)cc1	50 (≈ 115 µM)	> 100	> 100	> 100	> 6.25	50 (≈ 115 µM)	> 100	250 (≈ 573 µM)	> 100	> 100	> 100	100 (≈ 229 µM)	50 (≈ 115 µM)	100 (≈ 229 µM)	95
O=C(CSc1nnc(-c2cc3ccccc3oc2=O)o1)Nc1nc2ccccc2s1	50 (≈ 115 µM)	> 100	100 (≈ 229 µM)	> 100	> 6.25	100 (≈ 229 µM)	100 (≈ 229 µM)	500 (≈ 1150 µM)	> 100	> 100	100 (≈ 229 µM)	> 100	> 100	100 (≈ 229 µM)	95
O=C(CSc1nnc(-c2cc3ccccc3oc2=O)o1)Nc1nc2ccc(Cl)cc2s1	100 (≈ 212 µM)	12.5 (≈ 26.5 µM)	25 (≈ 53.1 µM)	25 (≈ 53.1 µM)	> 6.25	50 (≈ 106 µM)	50 (≈ 106 µM)	62.5 (≈ 133 µM)	100 (≈ 212 µM)	50 (≈ 106 µM)	50 (≈ 106 µM)	100 (≈ 212 µM)	100 (≈ 212 µM)	6.25 (≈ 13.3 µM)	96
O=C(CSc1nnc(-c2cc3ccccc3oc2=O)o1)Nc1nc2ccc(Br)cc2s1	100 (≈ 194 µM)	25 (≈ 48.5 µM)	50 (≈ 97 µM)	100 (≈ 194 µM)	> 6.25	25 (≈ 48.5 µM)	50 (≈ 97 µM)	12.5 (≈ 24.3 µM)	100 (≈ 194 µM)	50 (≈ 97 µM)	100 (≈ 194 µM)	50 (≈ 97 µM)	100 (≈ 194 µM)	3.12 (≈ 6.05 µM)	99
O=C(CSc1nnc(-c2cc3ccccc3oc2=O)o1)Nc1nc2ccc(F)cc2s1	50 (≈ 110 µM)	12.5 (≈ 27.5 µM)	25 (≈ 55 µM)	25 (≈ 55 µM)	> 6.25	12.5 (≈ 27.5 µM)	100 (≈ 220 µM)	50 (≈ 110 µM)	100 (≈ 220 µM)	50 (≈ 110 µM)	50 (≈ 110 µM)	50 (≈ 110 µM)	50 (≈ 110 µM)	12.5 (≈ 27.5 µM)	98
O=C(CSc1nnc(-c2cc3ccccc3oc2=O)o1)Nc1nc2ccc(I)cc2s1	> 100	100 (≈ 178 µM)	100 (≈ 178 µM)	100 (≈ 178 µM)	> 6.25	100 (≈ 178 µM)	> 100	100 (≈ 178 µM)	100 (≈ 178 µM)	50 (≈ 88.9 µM)	100 (≈ 178 µM)	100 (≈ 178 µM)	100 (≈ 178 µM)	100 (≈ 178 µM)	97
O=C(CSc1nnc(-c2cc3ccccc3oc2=O)o1)Nc1nc2ccc([N+](=O)[O-])cc2s1	100 (≈ 208 µM)	50 (≈ 104 µM)	100 (≈ 208 µM)	100 (≈ 208 µM)	> 6.25	50 (≈ 104 µM)	12.5 (≈ 26 µM)	250 (≈ 519 µM)	50 (≈ 104 µM)	100 (≈ 208 µM)	100 (≈ 208 µM)	50 (≈ 104 µM)	100 (≈ 208 µM)	100 (≈ 208 µM)	96
N#Cc1ccc2nc(NC(=O)CSc3nnc(-c4cc5ccccc5oc4=O)o3)sc2c1	> 100	100 (≈ 217 µM)	> 100	> 100	> 6.25	25 (≈ 54.2 µM)	100 (≈ 217 µM)	100 (≈ 217 µM)	25 (≈ 54.2 µM)	50 (≈ 108 µM)	100 (≈ 217 µM)	50 (≈ 108 µM)	100 (≈ 217 µM)	100 (≈ 217 µM)	98
Cc1ccc2nc(NC(=O)CSc3nnc(-c4cc5ccccc5oc4=O)o3)sc2c1	100 (≈ 222 µM)	> 100	> 100	> 100	> 6.25	100 (≈ 222 µM)	100 (≈ 222 µM)	200 (≈ 444 µM)	100 (≈ 222 µM)	> 100	100 (≈ 222 µM)	100 (≈ 222 µM)	100 (≈ 222 µM)	100 (≈ 222 µM)	95
COc1ccc2nc(NC(=O)CSc3nnc(-c4cc5ccccc5oc4=O)o3)sc2c1	50 (≈ 107 µM)	50 (≈ 107 µM)	50 (≈ 107 µM)	100 (≈ 214 µM)	> 6.25	25 (≈ 53.6 µM)	25 (≈ 53.6 µM)	25 (≈ 53.6 µM)	100 (≈ 214 µM)	100 (≈ 214 µM)	25 (≈ 53.6 µM)	50 (≈ 107 µM)	25 (≈ 53.6 µM)	50 (≈ 107 µM)	98
CCOc1ccc2nc(NC(=O)CSc3nnc(-c4cc5ccccc5oc4=O)o3)sc2c1	6.25 (≈ 13 µM)	100 (≈ 208 µM)	100 (≈ 208 µM)	100 (≈ 208 µM)	> 6.25	12.5 (≈ 26 µM)	100 (≈ 208 µM)	50 (≈ 104 µM)	100 (≈ 208 µM)	50 (≈ 104 µM)	12.5 (≈ 26 µM)	100 (≈ 208 µM)	50 (≈ 104 µM)	25 (≈ 52 µM)	97
CC(=O)Nc1ccc2nc(NC(=O)CSc3nnc(-c4cc5ccccc5oc4=O)o3)sc2c1	12.5 (≈ 25.3 µM)	100 (≈ 203 µM)	100 (≈ 203 µM)	> 100	> 6.25	50 (≈ 101 µM)	> 100	100 (≈ 203 µM)	100 (≈ 203 µM)	100 (≈ 203 µM)	100 (≈ 203 µM)	> 100	12.5 (≈ 25.3 µM)	100 (≈ 203 µM)	96
O=C(O)c1cn(C2CC2)c2cc(N3CCNCC3)c(F)cc2c1=O [CIPROFLOXACIN]	0.78 (≈ 2.35 µM)	–	1.56 (≈ 4.71 µM)	–	–	1.56 (≈ 4.71 µM)	0.39 (≈ 1.18 µM)	–	0.78 (≈ 2.35 µM)	–	0.39 (≈ 1.18 µM)	–	–	0.39 (≈ 1.18 µM)	–
CC(=O)N1CCN(c2ccc(OCC3COC(Cn4ccnc4)(c4ccc(Cl)cc4Cl)O3)cc2)CC1 (stereo unspecified) [KETOCONAZOLE]	–	1.56 (≈ 2.94 µM)	–	0.78 (≈ 1.47 µM)	–	–	–	–	–	–	–	1.56 (≈ 2.94 µM)	0.78 (≈ 1.47 µM)	–	–
